Read-outs that look alike come from different tables or passages of the source.
Tests used:
[1] = tested on: DNA from Salmonella TA100; experiment: Abasic sites by aldehydic-site assay in DNA of treated TA100; format: cell-based; settings: DMSO 5.9 ± 0.33
[2] = tested on: strain TA100; format: cell-based, Salmonella; settings: TA100 liquid-suspension; for Rev/10^6 survivors: DMSO 0.8; for Percent survival: DMSO 100
[3] = tested on: Salmonella TA100; experiment: Salmonella plate-incorporation mutagenicity assay, strain TA100; format: cell-based; settings: for Mutagenic potency, Revertants/µg ± S.E., TA100 / Mutagenicity call TA100: plate-incorporation, +S9
[4] = tested on: DNA from Salmonella TA100; experiment: Stable DNA adducts by 32P-postlabeling in DNA of treated TA100; format: cell-based; settings: DMSO 0.024 ± 0.000
[5] = tested on: Salmonella TA104; experiment: Salmonella plate-incorporation mutagenicity assay, strain TA104, with S9 mix; format: cell-based
[6] = tested on: Salmonella TA98; experiment: Salmonella plate-incorporation mutagenicity assay, strain TA98, with S9 mix; format: cell-based; settings: for Mutagenic potency, Revertants/µg ± S.E., TA98: plate-incorporation, +S9
[7] = tested on: Salmonella; settings: cited from earlier work
[8] = incubation with rat liver microsomes; cited from earlier work
[9] = TA100 +S9, Test 2, 0.5 µg/plate, zero-dose 84/78/80
[10] = TA100 +S9, Test 3, 0.5 µg/plate, zero-dose 127/118/125
[11] = TA104 +S9, Test 2, 0.5 µg/plate, zero-dose 276/260/270
[12] = TA104 +S9, Test 2, 1 µg/plate, zero-dose 276/260/270
[13] = TA104 +S9, Test 2, 2 µg/plate, zero-dose 276/260/270
[14] = TA104 +S9, Test 2, 5 µg/plate, zero-dose 276/260/270
[15] = TA104 +S9, Test 3, 0.5 µg/plate, zero-dose 402/395/336
[16] = TA104 +S9, Test 3, 1 µg/plate, zero-dose 402/395/336
[17] = TA104 +S9, Test 3, 2 µg/plate, zero-dose 402/395/336
[18] = TA104 +S9, Test 3, 5 µg/plate, zero-dose 402/395/336
[19] = TA98 +S9, Test 1, 2 µg/plate, zero-dose 33/40/39
[20] = TA98 +S9, Test 1, 5 µg/plate, zero-dose 33/40/39
[21] = TA98 +S9, Test 1, 10 µg/plate, zero-dose 33/40/39
[22] = TA98 +S9, Test 1, 20 µg/plate, zero-dose 33/40/39
[23] = TA98 +S9, Test 1, 40 µg/plate, zero-dose 33/40/39
[24] = TA98 +S9, Test 1, 80 µg/plate, zero-dose 33/40/39
[25] = TA98 +S9, Test 2, 0.5 µg/plate, zero-dose 43/41/30
[26] = TA98 +S9, Test 3, 0.5 µg/plate, zero-dose 49/50/50

With `c1ccc2c(c1)ccc1ccc3ccccc3c12` [B[c]P, Benzo[c]phenanthrene] the “Abasic sites/10^5 nucleotides ± S.E” value ([1]; TA100, 20 µg/ml) was 3.3 ± 0.12 sites/10^5 nucleotides, the “Fold increase in mutant frequency relative to DMSO-treated cells” value ([2]; 20 µg/ml) was 3.9 fold and the “Rev/10^6 survivors” value ([2]; 20 µg/ml) was 3.1 Rev/10^6 survivors. The Percent survival ([2]; 20 µg/ml) was 71%, the Rev/plate ([3]; TA100 +S9, Test 1, 2 µg/plate, zero-dose 99/110/110) was 251 rev/plate and the Rev/plate ([3]; TA100 +S9, Test 1, 5 µg/plate, zero-dose 99/110/110) was 388 rev/plate. For the same compound, the Rev/plate ([3]; TA100 +S9, Test 1, 10 µg/plate, zero-dose 99/110/110) was 467 rev/plate, the Rev/plate ([3]; TA100 +S9, Test 1, 20 µg/plate, zero-dose 99/110/110) was 503 rev/plate and the Rev/plate ([3]; TA100 +S9, Test 1, 40 µg/plate, zero-dose 99/110/110) was 494 rev/plate. The Rev/plate ([3]; TA100 +S9, Test 1, 80 µg/plate, zero-dose 99/110/110) was 354 rev/plate, the Rev/plate [3, 9] was 97/85 and the Rev/plate ([3]; TA100 +S9, Test 2, 1 µg/plate, zero-dose 84/78/80) was 114/78. The Rev/plate ([3]; TA100 +S9, Test 2, 2 µg/plate, zero-dose 84/78/80) was 117/143, the Rev/plate ([3]; TA100 +S9, Test 2, 5 µg/plate, zero-dose 84/78/80) was 300/204 and the Rev/plate [3, 10] was 180/190. For the same compound, the Rev/plate ([3]; TA100 +S9, Test 3, 1 µg/plate, zero-dose 127/118/125) was 250/217, the Rev/plate ([3]; TA100 +S9, Test 3, 2 µg/plate, zero-dose 127/118/125) was 300/303 and the Rev/plate ([3]; TA100 +S9, Test 3, 5 µg/plate, zero-dose 127/118/125) was 510/499. The “Mutagenic potency, Revertants/µg ± S.E., TA100” value [3] was 56.4 ± 12.1 rev/µg, the “Mutagenicity call TA100” value [3] was “(+) (Called mutagenic (+) based on showing reproducible, dose-related increases in rev/plate that reached or exceeded 2-fold relative to zero-dose controls)” and the “Stable adducts/10^8 nucleotides ± S.E” value ([4]; TA100, 20 µg/ml) was 1.600 ± 0.040 adducts/10^8 nucleotides. The Rev/plate [5, 11] was 432/407, the Rev/plate [5, 12] was 504/506 and the Rev/plate [5, 13] was 570/609. The Rev/plate [5, 14] was 753/894, the Rev/plate [5, 15] was 523/486 and the Rev/plate [5, 16] was 636/581. The Rev/plate [5, 17] was 588/660, the Rev/plate [5, 18] was 850/824 and the “Mutagenic potency, Revertants/µg ± S.E., TA104” value ([5]; plate-incorporation, +S9) was 241 ± 25 rev/µg. The “Mutagenicity call TA104” value ([5]; plate-incorporation, +S9) was “(+) (Called mutagenic (+) based on showing reproducible, dose-related increases in rev/plate that reached or exceeded 2-fold relative to zero-dose controls)”, the Rev/plate [6, 19] was 37 rev/plate and the Rev/plate [6, 20] was 43 rev/plate. For the same compound, the Rev/plate [6, 21] was 57 rev/plate, the Rev/plate [6, 22] was 60 rev/plate and the Rev/plate [6, 23] was 50 rev/plate. The Rev/plate [6, 24] was 35 rev/plate, the Rev/plate [6, 25] was 44/36 and the Rev/plate ([6]; TA98 +S9, Test 2, 1 µg/plate, zero-dose 43/41/30) was 41/35. The Rev/plate ([6]; TA98 +S9, Test 2, 2 µg/plate, zero-dose 43/41/30) was 38/37, the Rev/plate ([6]; TA98 +S9, Test 2, 5 µg/plate, zero-dose 43/41/30) was 56/50 and the Rev/plate [6, 26] was 49/36. The Rev/plate ([6]; TA98 +S9, Test 3, 1 µg/plate, zero-dose 49/50/50) was 52/54, the Rev/plate ([6]; TA98 +S9, Test 3, 2 µg/plate, zero-dose 49/50/50) was 60/50 and the Rev/plate ([6]; TA98 +S9, Test 3, 5 µg/plate, zero-dose 49/50/50) was 87/61. For the same compound, the “Mutagenic potency, Revertants/µg ± S.E., TA98” value [6] was 1.2 ± 1.3 rev/µg and the “Mutagenicity in Salmonella (early studies)” value [7] was “mutagenic”.
In the case of `c1ccc2c(c1)ccc1ccc3sccc3c12` [P[3,4-b]T, Phenanthro[3,4,-b]thiophene], the “Abasic sites/10^5 nucleotides ± S.E” value ([1]; TA100, 10 µg/ml) was 6.2 ± 0.26 sites/10^5 nucleotides, the “Fold increase in mutant frequency relative to DMSO-treated cells” value ([2]; 10 µg/ml) was 5.3 fold and the “Rev/10^6 survivors” value ([2]; 10 µg/ml) was 4.3 Rev/10^6 survivors. For the same compound, the Percent survival ([2]; 10 µg/ml) was 24%, the Rev/plate ([3]; TA100 +S9, Test 2, 0.05 µg/plate, zero-dose 84/78/80) was 131/124 and the Rev/plate ([3]; TA100 +S9, Test 2, 0.1 µg/plate, zero-dose 84/78/80) was 120/128. For the same compound, the Rev/plate ([3]; TA100 +S9, Test 2, 0.25 µg/plate, zero-dose 84/78/80) was 235/243, the Rev/plate [3, 9] was 389/354 and the Rev/plate ([3]; TA100 +S9, Test 3, 0.05 µg/plate, zero-dose 127/118/125) was 151/163. The Rev/plate ([3]; TA100 +S9, Test 3, 0.1 µg/plate, zero-dose 127/118/125) was 187/201, the Rev/plate ([3]; TA100 +S9, Test 3, 0.25 µg/plate, zero-dose 127/118/125) was 344/311 and the Rev/plate [3, 10] was 450/508. For the same compound, the Rev/plate ([3]; TA100 +S9, Test 4, 0.05 µg/plate, zero-dose 112/140/115) was 144/123, the Rev/plate ([3]; TA100 +S9, Test 4, 0.1 µg/plate, zero-dose 112/140/115) was 159/169 and the Rev/plate ([3]; TA100 +S9, Test 4, 0.25 µg/plate, zero-dose 112/140/115) was 216/227. For the same compound, the Rev/plate ([3]; TA100 +S9, Test 4, 0.5 µg/plate, zero-dose 112/140/115) was 333/364, the Rev/plate ([3]; TA100 +S9, Test 5, 0.05 µg/plate, zero-dose 102/119/99) was 136/140 and the Rev/plate ([3]; TA100 +S9, Test 5, 0.1 µg/plate, zero-dose 102/119/99) was 175/132. The Rev/plate ([3]; TA100 +S9, Test 5, 0.25 µg/plate, zero-dose 102/119/99) was 237/166, the Rev/plate ([3]; TA100 +S9, Test 5, 0.5 µg/plate, zero-dose 102/119/99) was 366/305 and the “Mutagenic potency, Revertants/µg ± S.E., TA100” value [3] was 550 ± 61 rev/µg. For the same compound, the “Mutagenicity call TA100” value [3] was “(+) (Called mutagenic (+) based on showing reproducible, dose-related increases in rev/plate that reached or exceeded 2-fold relative to zero-dose controls)”, the “Stable adducts/10^8 nucleotides ± S.E” value ([4]; TA100, 10 µg/ml) was 0.090 ± 0.007 adducts/10^8 nucleotides and the Rev/plate [5, 11] was 335/385. For the same compound, the Rev/plate [5, 12] was 461/542, the Rev/plate [5, 13] was 569/553 and the Rev/plate [5, 14] was 582/601. For the same compound, the Rev/plate [5, 15] was 507/473, the Rev/plate [5, 16] was 571/559 and the Rev/plate [5, 17] was 604/630. The Rev/plate [5, 18] was 535/679, the “Mutagenic potency, Revertants/µg ± S.E., TA104” value ([5]; plate-incorporation, +S9) was 210 ± 84 rev/µg and the “Major relatively nonpolar metabolite(s), share of the total metabolites” value [8] was 80–96%. It also gave a Rev/plate [6, 19] of 81 rev/plate, a Rev/plate [6, 20] of 80 rev/plate and a Rev/plate [6, 21] of 62 rev/plate. The Rev/plate [6, 22] was 54 rev/plate, the Rev/plate [6, 23] was 60 rev/plate and the Rev/plate [6, 24] was 55 rev/plate. For the same compound, the Rev/plate ([6]; TA98 +S9, Test 2, 0.05 µg/plate, zero-dose 43/41/30) was 30/40, the Rev/plate ([6]; TA98 +S9, Test 2, 0.1 µg/plate, zero-dose 43/41/30) was 31/33 and the Rev/plate ([6]; TA98 +S9, Test 2, 0.25 µg/plate, zero-dose 43/41/30) was 33/32. For the same compound, the Rev/plate [6, 25] was 58/34, the Rev/plate ([6]; TA98 +S9, Test 3, 0.05 µg/plate, zero-dose 49/50/50) was 57/49 and the Rev/plate ([6]; TA98 +S9, Test 3, 0.1 µg/plate, zero-dose 49/50/50) was 50/51. For the same compound, the Rev/plate ([6]; TA98 +S9, Test 3, 0.25 µg/plate, zero-dose 49/50/50) was 40/63, the Rev/plate [6, 26] was 66/69 and the “Mutagenic potency, Revertants/µg ± S.E., TA98” value [6] was 0.2 ± 0.2 rev/µg. The “Reported Mutagenicity” value [7] was “mutagenic”.
